Data: patent publication US11207331B2, “Agents, compositions and methods for enhancing neurological function” (University of Southern California, priority 2007, dated 2021)

system: hippocampal neural cells; experiment: 3H-thymidine uptake in cultured hippocampal neural cells; type: cell-based, rat; conditions: 24 hours, 37° C.
Description: Biochemical analyses of 3H-thymidine uptake, as a measure of DNA synthesis, were used as the experimental vehicle to confirm the morphological observations described in examples 1 and 2. […] Thus, the range for the neurogenic effect of THP on neural cells is quite is sensitive and quite broad.
For these experiments, cultured hippocampal neural cells, derived from embryonic day 18 rat fetuses, were allowed to adhere to polylysine coated plastic cover-slips for 40 min in serum containing medium. Following adhesion, neurons were exposed to […] 3H-thymidine in the presence or absence of 100-500 nM THP and allowed to incubate at 37° C. for 24 hours in the absence or presence of the indicated steroids. Data are expressed as mean+SEM, *p<. 05,**p<0.01, ***p<0.001.
The time course of THP-induced 3H-thymidine incorporation in hippocampal neuronal cells is shown in FIG. 9 where cultured hippocampal nerve cells, derived from embryonic day 18 rat fetuses, were allowed to adhere to polylysine coated plastic cover-slips for 40 min in serum containing medium. Following adhesion, serum containing medium in the presence or absence of 10-250 nM THP plus […] 3H-thymidine and allowed to incubate at 37 for 1, 8 or 24 hours. Data are expressed as mean±SEM, *p<0.05,**p<0.01,***p<0.001.

| Compound | effect on 3H-thymidine incorporation (steroid specificity) |
| --- | --- |
| CC(=O)[C@H]1CC[C@H]2[C@@H]3CC[C@@H]4C[C@@H](O)CC[C@]4(C)[C@H]3CC[C@]12C [5ss, 3ss-THP] | no effect |
| 5α,3α-pregnan-triol | significant decrease |
| 5α, 3P-pregnen-3-one | no effect |
| CC(=O)[C@H]1CC[C@H]2[C@@H]3CCC4=CC(=O)CC[C@]4(C)[C@H]3CC[C@]12C [Progesterone] | modest increase |
| 5α,3α-pregnan-diol | significant decrease |
| CC(=O)[C@H]1CC[C@H]2[C@@H]3CC[C@H]4C[C@@H](O)CC[C@]4(C)[C@H]3CC[C@]12C [5cc, 3ss-THP] | no effect |
| pregnenolone sulfate | significant decrease |
